In patent publication US10130642B2, “Neprilysin inhibitors” (THERAVANCE BIOPHARMA R&D IP, LLC, priority 2011, dated 2018):

Target: human NEP (Homo sapiens (Human), UniProt P08473)
Assay: In vitro enzyme inhibition assay, inhibitor potencies at human NEP
Conditions: for pKi: pKi values at human NEP, recombinant human NEP, fluorogenic peptide substrate, 37° C.
Procedure: The inhibitory activities of compounds at human and rat neprilysin (EC 3.4.24.11; NEP) and human angiotensin converting enzyme (ACE) were determined using in vitro assays as described below.
The assays were performed in 384-well white opaque plates at 37° C. using the fluorogenic peptide substrates at a concentration of 10 μM in Assay Buffer (NEP: 50 mM HEPES, pH 7.5, 100 mM NaCl, 0.01% polyethylene glycol sorbitan monolaurate (Tween-20), 10 μM ZnSO4; ACE: 50 mM HEPES, pH 7.5, 100 mM NaCl, 0.01% Tween-20, 1 μM ZnSO4).
Test compounds were assayed over the range of concentrations from 10 μM to 20 pM. Test compounds were added to the enzymes and incubated for 30 minute at 37° C. prior to initiating the reaction by the addition of substrate.
Inhibition constants were obtained by nonlinear regression of the data using the equation (GraphPad Software, Inc., San Diego, Calif.): ν=ν0/[1+(I/K′)] where ν is the reaction rate, ν0 is the uninhibited reaction rate, I is the inhibitor concentration and K′ is the apparent inhibition constant.

Sequence of human NEP (P08473 52-750): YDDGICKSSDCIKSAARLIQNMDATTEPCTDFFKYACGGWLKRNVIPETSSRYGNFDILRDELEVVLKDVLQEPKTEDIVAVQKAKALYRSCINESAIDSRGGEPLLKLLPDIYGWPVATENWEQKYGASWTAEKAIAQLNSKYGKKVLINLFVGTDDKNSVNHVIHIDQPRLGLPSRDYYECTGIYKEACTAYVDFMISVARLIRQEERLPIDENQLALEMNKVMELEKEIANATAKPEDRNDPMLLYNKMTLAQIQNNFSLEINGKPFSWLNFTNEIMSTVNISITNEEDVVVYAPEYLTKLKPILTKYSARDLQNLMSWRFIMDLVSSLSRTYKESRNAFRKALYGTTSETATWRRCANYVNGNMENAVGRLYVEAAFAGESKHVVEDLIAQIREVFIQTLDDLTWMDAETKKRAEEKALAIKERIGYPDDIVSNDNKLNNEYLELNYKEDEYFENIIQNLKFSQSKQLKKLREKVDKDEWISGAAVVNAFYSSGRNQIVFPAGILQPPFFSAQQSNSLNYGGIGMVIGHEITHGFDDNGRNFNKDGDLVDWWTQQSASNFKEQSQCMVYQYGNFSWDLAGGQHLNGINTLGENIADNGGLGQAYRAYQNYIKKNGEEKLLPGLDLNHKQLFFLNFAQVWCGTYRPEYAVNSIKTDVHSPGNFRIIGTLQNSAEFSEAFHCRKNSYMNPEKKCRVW

Row | Ki [nM] | pKi | SMILES
1 | 12.6 to 100 |  | Cc1nc2c(Cl)cc(C(=O)NC(Cc3ccc(-c4ccccc4)cc3)C[C@H](CO)C(=O)O)cc2[nH]1 (stereo partly drawn) [Example 4-38, (R)-5-Biphenyl-4-yl-4-[(7-chloro-2-methyl-3H-benzoimidazole-5-carbonyl)-amino]-2-hydroxymethyl-pentanoic acid]
2 | 12.6 to 100 |  | CN(C)C(=O)c1cc(C(=O)N[C@H](Cc2ccc(-c3ccccc3)cc2)C[C@H](CO)C(=O)O)[nH]n1 [Example 4-20, (2R,4S)-5-Biphenyl-4-yl-4-[(5-dimethylcarbamoyl-2H-pyrazole-3-carbonyl)-amino]-2-hydroxymethyl-pentanoic acid]
3 | ≤ 1 |  | O=C(O)c1cc(C(=O)N[C@H](Cc2ccc(-c3ccccc3)cc2)C[C@@H](CO)C(=O)O)[nH]n1 [Example 4-18, 5-((1S,3S)-1-Biphenyl-4-ylmethyl-3-carboxy-4-hydroxy-butylcarbamoyl)-1H-pyrazole-3-carboxylic acid]
4 | ≤ 1 |  | O=C(N[C@H](Cc1ccc(-c2ccccc2)cc1)C[C@@H](CO)C(=O)O)c1cc(C(=O)N2CCC2)n[nH]1 [Example 4-24, (2S,4S)-4-{[5-(Azetidine-1-carbonyl)-2H-pyrazole-3-carbonyl]-amino}-5-biphenyl-4-yl-2-hydroxymethyl-pentanoic acid]
5 | ≤ 1 |  | O=C(N[C@H](Cc1ccc(-c2ccccc2)cc1)C[C@@H](CO)C(=O)O)c1cc(-c2ccccc2Cl)n[nH]1 [Example 4-27, (2S,4S)-5-Biphenyl-4-yl-4-{[5-(2-chloro-phenyl)-2H-pyrazole-3-carbonyl]-amino}-2-hydroxymethyl-pentanoic acid]
6 | ≤ 1 |  | O=C(N[C@H](Cc1ccc(-c2ccccc2F)cc1)C[C@@H](CO)C(=O)O)c1cnn[nH]1 [Example 4-2, (2S,4S)-5-(2′-Fluorobiphenyl-4-yl)-2-hydroxymethyl-4-[(3H-[1,2,3]triazole-4-carbonyl)-amino]-pentanoic acid]
7 | ≤ 1 |  | O=C(N[C@H](Cc1ccc(-c2cccc(Cl)c2)cc1)C[C@@H](CO)C(=O)O)c1cn(O)nn1 [Example 4-10, (2S,4S)-5-(3′-Chloro-biphenyl-4-yl)-2-hydroxymethyl-4-[(1-hydroxy-1H-[1,2,3]triazole-4-carbonyl)-amino]-pentanoic acid]
8 | ≤ 1 |  | C[C@@](CO)(C[C@@H](Cc1ccc(-c2ccccc2F)cc1)NC(=O)c1cnn[nH]1)C(=O)O [Example 8-2, (2S,4R)-5-(2′-Fluorobiphenyl-4-yl)-2-hydroxymethyl-2-methyl-4-[(3H-[1,2,3]triazole-4-carbonyl)-amino]-pentanoic acid]
9 | ≤ 1 |  | O=C(NC(Cc1ccc(-c2ccccc2)cc1)C[C@@H](CO)C(=O)O)c1cc(F)c2nn[nH]c2c1 (stereo partly drawn) [Example 4-33, (S)-5-Biphenyl-4-yl-4-[(7-fluoro-3H-benzotriazole-5-carbonyl)-amino]-2-hydroxymethyl-pentanoic acid]
10 | ≤ 1 |  | O=C(N[C@H](Cc1ccc(-c2ccccc2)cc1)C[C@@H](CO)C(=O)O)c1cn(O)nn1 [Example 4-7, (2S,4S)-5-Biphenyl-4-yl-2-hydroxymethyl-4-[(1-hydroxy-1H-[1,2,3]triazole-4-carbonyl)-amino]-pentanoic acid]
11 | ≤ 1 |  | C[C@@](CO)(C[C@@H](Cc1ccc(-c2ccccc2)cc1)NC(=O)c1cc(O)no1)C(=O)O [Example 6-19, (2S,4R)-5-Biphenyl-4-yl-4-[(3-hydroxy-isoxazole-5-carbonyl)-amino]-2-hydroxymethyl-2-methyl-pentanoic acid]
12 | ≤ 1 |  | O=C(N[C@H](Cc1ccc(-c2cccc(F)c2)cc1)C[C@@H](CO)C(=O)O)c1cc(-c2ccccn2)n[nH]1 [Example 4-30, (2S,4S)-5-(3′-Fluorobiphenyl-4-yl)-2-hydroxymethyl-4-[(5-pyridin-2-yl-2H-pyrazole-3-carbonyl)-amino]-pentanoic acid]
13 | 1.26 to 10 |  | CN(C)C(=O)c1cc(C(=O)N[C@H](Cc2ccc(-c3ccccc3)cc2)C[C@@H](CO)C(=O)O)[nH]n1 [Example 4-21, (2S,4S)-5-Biphenyl-4-yl-4-[(5-dimethylcarbamoyl-2H-pyrazole-3-carbonyl)-amino]-2-hydroxymethyl-pentanoic acid]
14 |  | ≥9.0 | O=C(N[C@H](Cc1ccc(-c2ccccc2)cc1)C[C@@H](CO)C(=O)O)c1cnn[nH]1 [Example 1B, (2S,4S)-5-Biphenyl-4-yl-2-hydroxymethyl-4-[(3H-[1,2,3]triazole-4-carbonyl)-amino]-pentanoic acid]
15 | 1.26 to 10 |  | O=C(N[C@H](Cc1ccc(-c2ccccc2)cc1)C[C@H](CO)C(=O)O)c1cnn[nH]1 [Example 4-1, (2R,4S)-5-Biphenyl-4-yl-2-hydroxymethyl-4-[(3H-[1,2,3]triazole-4-carbonyl)-amino]-pentanoic acid]
16 | ≤ 1 |  | CC(CO)(C[C@@H](Cc1ccc(-c2ccccc2)cc1)NC(=O)c1cc(C(=O)O)n[nH]1)C(=O)O (stereo partly drawn) [Example 6-15, 5-((R)-1-Biphenyl-4-ylmethyl-3-carboxy-4-hydroxy-3-methyl-butylcarbamoyl)-1H-pyrazole-3-carboxylic acid]
17 |  | ≥9.0 | O=C(N[C@H](Cc1ccc(-c2cccc(F)c2)cc1)C[C@@H](CO)C(=O)O)c1nc(Cl)n[nH]1 [Example 3B, (2S,4S)-4-[(5-Chloro-2H-[1,2,4]triazole-3-carbonyl)amino]-5-(3′-fluorobiphenyl-4-yl)-2-hydroxymethyl-pentanoic acid]
18 | ≤ 1 |  | O=C(N[C@H](Cc1ccc(-c2ccccc2)cc1)C[C@@H](CO)C(=O)O)c1cc(O)n[nH]1 [Example 4-17, (2S,4S)-5-Biphenyl-4-yl-2-hydroxymethyl-4-[(5-hydroxy-2H-pyrazole-3-carbonyl)-amino]-pentanoic acid]
19 | ≤ 1 |  | O=C(N[C@H](Cc1ccc(-c2ccccc2)cc1)C[C@@H](CO)C(=O)O)c1cnc(O)nc1 [Example 4-47, (2S,4S)-5-Biphenyl-4-yl-2-hydroxymethyl-4-[(2-hydroxy-pyrimidine-5-carbonyl)-amino]-pentanoic acid]
20 | ≤ 1 |  | CC(C)(c1ccc(-c2ccccc2)cc1)[C@H](C[C@@H](CO)C(=O)O)NC(=O)c1cc(O)no1 [Example 9, (2S,4S)-5-Biphenyl-4-yl-4-[(3-hydroxy-isoxazole-5-carbonyl)-amino]-2-hydroxymethyl-5-methyl-hexanoic Acid]
21 | ≤ 1 |  | O=C(N[C@H](Cc1ccc(-c2ccccc2F)cc1)C[C@@H](CO)C(=O)O)c1cn(O)nn1 [Example 4-8, (2S,4S)-5-(2′-Fluorobiphenyl-4-yl)-2-hydroxymethyl-4-[(1-hydroxy-1H-[1,2,3]triazole-4-carbonyl)-amino]-pentanoic acid]
22 | ≤ 1 |  | C[C@@](CO)(C[C@@H](Cc1ccc(-c2ccccc2F)cc1)NC(=O)c1cn(O)nn1)C(=O)O [Example 8-4, (2S,4R)-5-(2′-Fluoro-biphenyl-4-yl)-2-hydroxymethyl-4-[(1-hydroxy-1H-[1,2,3]triazole-4-carbonyl)-amino]-2-methyl-pentanoic acid]
23 | ≤ 1 |  | O=C(N[C@H](Cc1ccc(-c2ccccc2)cc1)C[C@@H](CO)C(=O)O)c1cc(O)no1 [Example 4-45, (2S,4S)-5-Biphenyl-4-yl-4-[(3-hydroxy-isoxazole-5-carbonyl)-amino]-2-hydroxymethyl-pentanoic acid]

Row | SMILES | Ki [nM] | pKi
24 | C[C@@](CO)(C[C@@H](Cc1ccc(-c2ccccc2)cc1)NC(=O)c1cn(Cc2ccccc2)nn1)C(=O)O [Example 6-6, (2S,4R)-4-[(1-Benzyl-1H-[1,2,3]triazole-4-carbonyl)-amino]-5-biphenyl-4-yl-2-hydroxymethyl-2-methyl-pentanoic acid] | 12.6 to 100 | 
25 | C[C@@](CO)(C[C@@H](Cc1ccc(-c2ccc(F)cc2)cc1)NC(=O)c1cnn[nH]1)C(=O)O [Example 8-3, (2S,4R)-5-(4′-Fluorobiphenyl-4-yl)-2-hydroxymethyl-2-methyl-4-[(3H-[1,2,3]triazole-4-carbonyl)-amino]-pentanoic acid] | 12.6 to 100 | 
26 | C[C@@](CO)(C[C@@H](Cc1ccc(-c2ccccc2)cc1)NC(=O)c1nc(O)n[nH]1)C(=O)O [Example 6-2, (2S,4R)-5-Biphenyl-4-yl-2-hydroxymethyl-4-[(5-hydroxy-2H-[1,2,4]triazole-3-carbonyl)-amino]-2-methyl-pentanoic acid] | 12.6 to 100 | 
27 | C[C@@](CO)(C[C@@H](Cc1ccc(-c2ccccc2)cc1)NC(=O)c1cc(O)n[nH]1)C(=O)O [Example 6-17, (2S,4R)-5-Biphenyl-4-yl-2-hydroxymethyl-4-[(5-hydroxy-2H-pyrazole-3-carbonyl)-amino]-2-methyl-pentanoic acid] | 1.26 to 10 | 
28 | O=C(N[C@H](Cc1ccc(-c2ccccc2)cc1)C[C@@H](CO)C(=O)O)c1nc(Cl)n[nH]1 [Example 2A, (2S,4S)-5-Biphenyl-4-yl-4-[(5-chloro-2H-[1,2,4]-triazole-3-carbonyl)-amino]-2-hydroxymethyl-pentanoic acid] | 1.26 to 10 | 
